Measured values from patent publication US9527885B2, “Hepatitis C virus inhibitors” (BRISTOL-MYERS SQUIBB COMPANY, priority 2011, dated 2016).
Read-outs that look alike come from different tables or passages of the source.

Assays:
[1] = test system: HCV genotype 1a (H77 strain) replicon in HUH-7 cells; experiment: HCV replicon luciferase reporter assay, genotype 1a; assay type: cell-based; settings: Hepatitis C virus, Huh-7, 72 h, HCV genotype 1a replicon luciferase, 3 days incubation, read-out: LE_1a (EC50, range)
In short: (§1)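 Twenty-point, threefold compound titrations (0.5% DMSO) were incubated 3 days at 37 °C with 3.0×10^3 HUH-7 cells/well in 4% FCS. The cells stably carried luciferase replicons: genotype 1b Con1 (S1179I) or 1a H77 (NS3 P1496L, NS5A S2204I). Renilla signal was read after 2 h with 7.5 μM EnduRen, and EC50 was taken from a four-parameter logistic fit. Cytotoxicity (CC50) was measured by Cell Titer-Blue, 8 h.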

[2] = test system: HCV genotype 1b (Con1) replicon in HUH-7 cells; experiment: HCV replicon luciferase reporter assay, genotype 1b; assay type: cell-based; settings: Hepatitis C virus, 72 h, HCV genotype 1b replicon luciferase, 3 days incubation, read-out: LE_1b (EC50, range)
In short: as §1

CCOc1ccc2c(O[C@@H]3C[C@H]4C(=O)N[C@]5(C(=O)NS(=O)(=O)C6(C)CC6)C[C@H]5/C=C\CC[C@@H](C)C[C@@H](C)[C@H](NC(=O)OC(C)(C)C(F)(F)F)C(=O)N4C3)nccc2c1 [Compound 5136, 1,1,1-trifluoro-2-methylpropan-2-yl ((2R,6S,7R,9R,13aS,14aR,16aS,Z)-2-((6-ethoxyisoquinolin-1-yl)oxy)-7,9-dimethyl-14a-(((1-methylcyclopropyl)sulfonyl)carbamoyl)-5,16-dioxo-1,2,3,5,6,7,8,9,10,11,13a,14,14a,15,16,16a-hexadecahydrocyclopropa[e]pyrrolo[1,2-a][1,4]diazacyclopentadecin-6-yl)carbamate]
EC50 ([1]; class symbols): < 5.46 nM
EC50 ([2]; class symbols): < 5.46 nM

CCOc1ccc2c(O[C@@H]3C[C@H]4C(=O)N[C@]5(C(=O)NS(=O)(=O)C6(C)CC6)C[C@H]5/C=C\CC[C@H](C)C[C@@H](C)[C@H](NC(=O)O[C@@H]5C[C@@H]6C[C@@H]6C5)C(=O)N4C3)nccc2c1 [Compound 5137, (1R,3r,5S)-bicyclo[3.1.0]hexan-3-yl ((2R,6S,7R,9S,13aS,14aR,16aS,Z)-2-((6-ethoxyisoquinolin-1-yl)oxy)-7,9-dimethyl-14a-(((1-methylcyclopropyl)sulfonyl)carbamoyl)-5,16-dioxo-1,2,3,5,6,7,8,9,10,11,13a,14,14a,15,16,16a-hexadecahydrocyclopropa[e]pyrrolo[1,2-a][1,4]diazacyclopentadecin-6-yl)carbamate]
EC50 ([1]; class symbols): < 5.46 nM
EC50 ([2]; class symbols): < 5.46 nM

CCOc1ccc2c(O[C@@H]3C[C@H]4C(=O)N[C@]5(C(=O)NS(=O)(=O)C6(C)CC6)C[C@H]5/C=C\CC[C@@H](C)C[C@@H](C)[C@H](NC(=O)O[C@@H]5C[C@@H]6C[C@@H]6C5)C(=O)N4C3)nccc2c1 [Compound 5138, (1R,3r,5S)-bicyclo[3.1.0]hexan-3-yl ((2R,6S,7R,9R,13 aS,14aR,16aS,Z)-2-((6-ethoxyisoquinolin-1-yl)oxy)-7,9-dimethyl-14a-(((1-methylcyclopropyl)sulfonyl)carbamoyl)-5,16-dioxo-1,2,3,5,6,7,8,9,10,11,13a,14,14a,15,16,16a-hexadecahydrocyclopropa[e]pyrrolo[1,2-a][1,4]diazacyclopentadecin-6-yl)carbamate]
EC50 ([1]; class symbols): < 5.46 nM
EC50 ([2]; class symbols): < 5.46 nM

CCCOc1ccc2c(O[C@@H]3C[C@H]4C(=O)N[C@]5(C(=O)NS(=O)(=O)C6CC6)C[C@H]5/C=C\CC[C@@H](C)C[C@@H](C)[C@H](NC(=O)OC(C(F)(F)F)(C(Cl)(Cl)Cl)C(Cl)(Cl)Cl)C(=O)N4C3)nccc2c1 [Compound 5173, 1,1,1,3,3,3-hexachloro-2-(trifluoromethyl)propan-2-yl ((2R,6S,7R,9R,13aS,14aR,16aS,Z)-14a-((cyclopropylsulfonyl)carbamoyl)-7,9-dimethyl-5,16-dioxo-2-((6-propoxyisoquinolin-1-yl)oxy)-1,2,3,5,6,7,8,9,10,11,13a,14,14a,15,16,16a-hexadecahydrocyclopropa[e]pyrrolo[1,2-a][1,4]diazacyclopentadecin-6-yl)carbamate]
EC50 ([1]; range class): < 5.46 nM
EC50 ([2]; range class): < 5.46 nM

[2H]C([2H])([2H])C(OC(=O)N[C@@H]1C(=O)N2C[C@H](Oc3nccc4cc(OC)ccc34)C[C@H]2C(=O)N[C@]2(C(=O)NS(=O)(=O)C3(C)CC3)C[C@H]2/C=C\CC[C@H](C)C[C@H]1C)(C([2H])([2H])[2H])C(F)(F)F [Compound 5174, 1,1,1,3,3,3-hexadeutero-2-(trifluoromethyl)propan-2-yl ((2R,6S,7R,9S,13aS,14aR,16aS,Z)-2-((6-methoxyisoquinolin-1-yl)oxy)-7,9-dimethyl-14a-(((1-methylcyclopropyl)sulfonyl)carbamoyl)-5,16-dioxo-1,2,3,5,6,7,8,9,10,11,13a,14,14a,15,16,16a-hexadecahydrocyclopropa[e]pyrrolo[1,2-a][1,4]diazacyclopentadecin-6-yl)carbamate]
EC50 ([1]; range class): < 5.46 nM
EC50 ([2]; range class): < 5.46 nM

[2H]C([2H])([2H])C(OC(=O)N[C@@H]1C(=O)N2C[C@H](Oc3nccc4cc(OC)ccc34)C[C@H]2C(=O)N[C@]2(C(=O)NS(=O)(=O)C3(C)CC3)C[C@H]2/C=C\CC[C@@H](C)C[C@H]1C)(C([2H])([2H])[2H])C(F)(F)F [Compound 5175, 1,1,1,3,3,3-hexadeutero-2-(trifluoromethyl)propan-2-yl ((2R,6S,7R,9R,13aS,14aR,16aS,Z)-2-((6-methoxyisoquinolin-1-yl)oxy)-7,9-dimethyl-14a-(((1-methylcyclopropyl)sulfonyl)carbamoyl)-5,16-dioxo-1,2,3,5,6,7,8,9,10,11,13a,14,14a,15,16,16a-hexadecahydrocyclopropa[e]pyrrolo[1,2-a][1,4]diazacyclopentadecin-6-yl)carbamate]
EC50 ([1]; range class): < 5.46 nM
EC50 ([2]; range class): < 5.46 nM

[2H]C([2H])([2H])C(C)(OC(=O)N[C@@H]1C(=O)N2C[C@H](Oc3nccc4cc(OC)ccc34)C[C@H]2C(=O)N[C@]2(C(=O)NS(=O)(=O)C3(C)CC3)C[C@H]2/C=C\CC[C@H](C)C[C@H]1C)C([2H])([2H])[2H] [Compound 5176, 1,1,1,3,3,3-hexadeutero-2-methylpropan-2-yl ((2R,6S,7R,9S,13aS,14aR,16aS,Z)-2-((6-methoxyisoquinolin-1-yl)oxy)-7,9-dimethyl-14a-(((1-methylcyclopropyl)sulfonyl)carbamoyl)-5,16-dioxo-1,2,3,5,6,7,8,9,10,11,13a,14,14a,15,16,16a-hexadecahydrocyclopropa[e]pyrrolo[1,2-a][1,4]diazacyclopentadecin-6-yl)carbamate]
EC50 ([1]; range class): 4.82 to 103 nM
EC50 ([2]; range class): < 5.46 nM

[2H]C([2H])([2H])C(C)(OC(=O)N[C@@H]1C(=O)N2C[C@H](Oc3nccc4cc(OC)ccc34)C[C@H]2C(=O)N[C@]2(C(=O)NS(=O)(=O)C3(C)CC3)C[C@H]2/C=C\CC[C@@H](C)C[C@H]1C)C([2H])([2H])[2H] [Compound 5177, 1,1,1,3,3,3-hexadeutero-2-methylpropan-2-yl ((2R,6S,7R,9R,13aS,14aR,16aS,Z)-2-((6-methoxyisoquinolin-1-yl)oxy)-7,9-dimethyl-14a-(((1-methylcyclopropyl)sulfonyl)carbamoyl)-5,16-dioxo-1,2,3,5,6,7,8,9,10,11,13a,14,14a,15,16,16a-hexadecahydrocyclopropa[e]pyrrolo[1,2-a][1,4]diazacyclopentadecin-6-yl)carbamate]
EC50 ([1]; range class): < 5.46 nM
EC50 ([2]; range class): < 5.46 nM

C[C@@H]1CC/C=C\[C@@H]2C[C@@]2(C(=O)NS(=O)(=O)C2CC2)NC(=O)[C@@H]2C[C@@H](Oc3nc4ccccc4c4ccccc34)CN2C(=O)[C@@H](NC(=O)OC(C)(C)C(F)(F)F)[C@H](C)C1 [Compound 5185, 1,1,1-trifluoro-2-methylpropan-2-yl ((2R,6S,7R,9R,13aS,14aR,16aS,Z)-14a-((cyclopropylsulfonyl)carbamoyl)-7,9-dimethyl-5,16-dioxo-2-(phenanthridin-6-yloxy)-1,2,3,5,6,7,8,9,10,11,13a,14,14a,15,16,16a-hexadecahydrocyclopropa[e]pyrrolo[1,2-a][1,4]diazacyclopentadecin-6-yl)carbamate]
EC50 ([1]; range class): < 5.46 nM
EC50 ([2]; range class): < 5.46 nM

COc1ccc2c(O[C@@H]3C[C@H]4C(=O)N[C@]5(C(=O)NS(=O)(=O)C6CC6)C[C@H]5/C=C\CC[C@H](C)C[C@@H](C)[C@H](NC(=O)O[C@@H]5C[C@@H]6C[C@@H]6C5)C(=O)N4C3)nc(-c3ccc(N4CCOCC4)cc3)cc2c1 [Compound 5194, (1R,3r,5S)-bicyclo[3.1.0]hexan-3-yl ((2R,6S,7R,9S,13aS,14aR,16aS,Z)-14a-((cyclopropylsulfonyl)carbamoyl)-2-((6-methoxy-3-(4-morpholinophenyl)isoquinolin-1-yl)oxy)-7,9-dimethyl-5,16-dioxo-1,2,3,5,6,7,8,9,10,11,13a,14,14a,15,16,16a-hexadecahydrocyclopropa[e]pyrrolo[1,2-a][1,4]diazacyclopentadecin-6-yl)carbamate]
EC50 ([1]; range class): < 5.46 nM
EC50 ([2]; range class): < 5.46 nM

COc1ccc2c(O[C@@H]3C[C@H]4C(=O)N[C@]5(C(=O)NS(=O)(=O)C6CC6)C[C@H]5/C=C\CC[C@@H](C)C[C@@H](C)[C@H](NC(=O)O[C@@H]5C[C@@H]6C[C@@H]6C5)C(=O)N4C3)nc(-c3ccc(N4CCOCC4)cc3)cc2c1 [Compound 5195, (1R,3r,5S)-bicyclo[3.1.0]hexan-3-yl ((2R,6S,7R,9R,13aS,14aR,16aS,Z)-14a-((cyclopropylsulfonyl)carbamoyl)-2-((6-methoxy-3-(4-morpholinophenyl)isoquinolin-1-yl)oxy)-7,9-dimethyl-5,16-dioxo-1,2,3,5,6,7,8,9,10,11,13a,14,14a,15,16,16a-hexadecahydrocyclopropa[e]pyrrolo[1,2-a][1,4]diazacyclopentadecin-6-yl)carbamate]
EC50 ([1]; range class): < 5.46 nM
EC50 ([2]; range class): < 5.46 nM

COc1ccc2c(O[C@@H]3C[C@H]4C(=O)N[C@]5(C(=O)NS(=O)(=O)C6CC6)C[C@H]5/C=C\CC[C@H](C)C[C@@H](C)[C@H](NC(=O)O[C@@H]5C[C@@H]6C[C@@H]6C5)C(=O)N4C3)nc(-c3ccc(OC(C)C)cn3)cc2c1 [Compound 5208, (1R,3r,5S)-bicyclo[3.1.0]hexan-3-yl ((2R,6S,7R,9S,13aS,14aR,16aS,Z)-14a-((cyclopropylsulfonyl)carbamoyl)-2-((3-(5-isopropoxypyridin-2-yl)-6-methoxyisoquinolin-1-yl)oxy)-7,9-dimethyl-5,16-dioxo-1,2,3,5,6,7,8,9,10,11,13a,14,14a,15,16,16a-hexadecahydrocyclopropa[e]pyrrolo[1,2-a][1,4]diazacyclopentadecin-6-yl)carbamate]
EC50 ([1]; range class): < 5.46 nM
EC50 ([2]; range class): < 5.46 nM
